Measured values: patent publication US20150374702A1 (CATHOLIC UNIVERSITY INDUSTRY ACADEMIC COOPERATION FOUNDATION, priority 2013, published 2015)

Experiments:
Capan-1 xenograft tumor [1] = assay: Suppression of tumor growth by doxorubicin or liposomal doxorubicin after pentoxifylline pretreatment; assay type: in vivo, BALB/c nu/nu mice; conditions: doxorubicin 8 mg/kg i.v., with or without pentoxifylline pretreatment 100 mg/kg/d for two weeks; normalized to volume at treatment start; P<0.05
Text: (§1) Female BALB/c nu/nu mice (5 to 6 weeks old) were purchased from Orient Bio Inc. (Seongnam City, Gyeonggi-do, Korea), and were raised in a germ-free animal breeding facility at the Catholic University of Korea, Catholic Medical Center (Seoul, Korea). The animals were raised in a standard state, and supplied with food and water ad libitum. The animals were taken care of in accordance with the guidelines of the Institutional Animal Care and Use Committee (IACUC) of School of Medicine of the Catholic University of Korea (Approval Number; CUMC-2010-0141-01). For induction of tumor, Capan-1 cells were harvested after the trypsin treatment, 5×10^6 living cells were subcutaneously injected into the right flanks of the mice. After tumor was induced, the mice were sacrificed, tumor samples were obtained, and experiments were performed according to each Example to be described below.

TGF-β1 [2] = assay: Total and active TGF-β1 in tumor homogenate (ELISA); assay type: in vivo, mice; conditions: ELISA of tumor homogenate
Text: as §1
Frozen tumors were cut into small pieces, and homogenized using Precellys 24 homogenizer (Bertin Technologies) in Tissue Extraction Reagent I (Invitrogen) containing protease inhibitor cocktail (Complete Mini, Roche). […] Total protein concentrations were determined by BCA protein assay kit (Pierce). Total and active TGF-β1 concentrations were determined using TGF-β1 ELISA kit (eBioscience) according to the manufacturer's protocol.

collagen type I = assay: Collagen type I content in tumor sections (immunofluorescence); assay type: in vivo, mice
Text: as §1

Capan-1 xenograft tumor [3] = assay: Suppression of tumor growth by combinatory treatment of pentoxifylline and gemcitabine; assay type: in vivo, BALB/c nu/nu mice; conditions: pentoxifylline alone 100 mg/kg/d i.p., 28 days
Text: as §1
The tumor size (mm^3) was calculated by using the equation: V=(a×b^2)/2 (a is the largest diameter of tumor, and b is the smallest diameter of tumor). The relative tumor size was normalized with respect to the volume when a drug treatment of Capan-1 xenograft tumor was initiated. At least three mice per group were used, and the results were presented as an average standard error (SE). The statistical significance was determined by using a 2-sample t-test inferred from the Microsoft Excel 2007. […]

mouse TGF-β1 = assay: TGF-β1 mRNA expression in tumor (quantitative real-time RT-PCR); assay type: in vivo; conditions: pentoxifylline versus control; direction not stated at b84
Text: as §1, with “After tumor was induced, the mice were sacrificed, tumor samples were obtained, and experiments were performed according to each Example to be described below.” left out
(§2) For the quantitative real-time RT-PCR analysis, total RNAs were isolated from tumor homogenates using the Trizol method and quantified by Nanodrop spectrophotometer (ND-1000). After 1 μg of total RNAs was reverse transcribed from the tissue with AccuPower CycleScript RT PreMix (Bioneer), a quantitative real-time polymerase chain reaction was performed using the LightCycler 480 Real-Time PCR System II (Roche) with SYBR Green Master mix (Roche) according to the manufacturer's recommendation. […]
All expression data were normalized using the GAPDH expression. The relative gene expression was quantified using the ΔΔCt method (2-ΔΔCt).

[4] = system: mouse COLIA1 (collagen type I, alpha 1); assay: Collagen type I mRNA expression in tumor (quantitative real-time RT-PCR); assay type: in vivo; conditions: pentoxifylline pretreatment for two weeks; P<0.02
Text: as §1, with “After tumor was induced, the mice were sacrificed, tumor samples were obtained, and experiments were performed according to each Example to be described below.” left out
as §2, with “In order to confirm the mRNA expression level of collagen type I, RT-PCR was performed. For” for “For”

TGF-β1 [5] = assay: Immunohistochemical staining of TGF-β1 in tumor sections; assay type: in vivo, mice
Text: as §1, with “below. […] Immunohistochemical staining for α-SMA, TGF-β1, and CTGF was performed using Dako Envision Detection System ([…], DAKO). Paraffin-embedded, formalin fixed samples were cut into sections having a thickness of 3 μm, deparaffinized and rehydrated. For antigen retrieval, a pressure cooker of a microwave method was used as a target retrieval solution ([…], DAKO) for 5 minutes (pH 9.0), and cooled at room temperature for 20 minutes. […]” for “below.”

α-SMA = assay: Immunohistochemical staining of α-SMA in tumor sections; assay type: in vivo, mice; conditions: pentoxifylline for two weeks; p<0.001
Text: as §1, with “below. […] Immunohistochemical staining for α-SMA, TGF-β1, and CTGF was performed using Dako Envision Detection System ([…], DAKO). Paraffin-embedded, formalin fixed samples were cut into sections having a thickness of 3 μm, deparaffinized and rehydrated. For antigen retrieval, a pressure cooker of a microwave method was used as a target retrieval solution ([…], DAKO) for 5 minutes (pH 9.0), and cooled at room temperature for 20 minutes. […]” for “below.”

CTGF = assay: Immunohistochemical staining of CTGF in tumor sections; assay type: in vivo, mice; conditions: pentoxifylline for two weeks; p<0.05
Text: as §1, with “below. […] Immunohistochemical staining for α-SMA, TGF-β1, and CTGF was performed using Dako Envision Detection System ([…], DAKO). Paraffin-embedded, formalin fixed samples were cut into sections having a thickness of 3 μm, deparaffinized and rehydrated. For antigen retrieval, a pressure cooker of a microwave method was used as a target retrieval solution ([…], DAKO) for 5 minutes (pH 9.0), and cooled at room temperature for 20 minutes. […]” for “below.”

CD31 = assay: Blood vessel density by CD31 immunostaining in tumor sections; assay type: in vivo, BALB/c nu/nu mice; conditions: with versus without pentoxifylline
Text: as §1

| Compound | relative tumor size at day 23 (Capan-1 xenograft tumor [1]) | effect on active TGF-β1 level in the tumor tissue (TGF-β1 [2]) | effect on total TGF-β1 level in the tumor tissue (TGF-β1 [2]) | collagen content at high dose (100 mg/kg) versus low dose (50 mg/kg) (collagen type I; i.p. for two weeks, P<0.05) | collagen type I contents in central and marginal regions of the tumor sections (collagen type I; pentoxifylline i.p. for two weeks versus saline) | anti-tumor effects compared to the control group of saline treatment (Capan-1 xenograft tumor [3]) | TGF-β1 mRNA expression (mouse TGF-β1) | reduction of mRNA expression of collagen I compared to the control group [4] | effect on TGF-β1 immunohistochemical staining in the tumor tissue (TGF-β1 [5]) | reduction of immunostaining of α-SMA in the tumor sections (α-SMA) | reduction of immunostaining of CTGF in the tumor sections (CTGF) | blood vessel density exhibited by CD31 immunostaining (CD31) |
| --- | --- | --- | --- | --- | --- | --- | --- | --- | --- | --- | --- | --- |
| COc1cccc2c1C(=O)c1c(O)c3c(c(O)c1C2=O)C[C@@](O)(C(=O)CO)C[C@@H]3O[C@H]1C[C@H](N)[C@H](O)[C@H](C)O1 [doxorubicin] | 1.52 |  |  |  |  |  |  |  |  |  |  |  |
| CC(=O)CCCCn1c(=O)c2c(ncn2C)n(C)c1=O [pentoxifylline, 1-(5-oxohexyl)-3,7-dimethylxanthine] |  | no effects | no effects | slightly lower | reduced | anti-tumor effects did not appear | big difference | 72% | no effects | 66% | 25% | no difference between groups |
